# Test results taken from patent publication US20230060174A1, “PHARMACEUTICAL COMPOSITION OF TRICYCLIC PDE3/PDE4 DUAL INHIBITOR COMPOUND” (CHIA TAI TIANQING PHARMACEUTICAL GROUP CO., LTD., priority 2020, published 2023).
# Tests used:
# [1] = reported in literature; cited from earlier work
# PDE4 = details: reported in literature; cited from earlier work
# [2] = reported in literature; cited from earlier work; remark: listed apart in the source
# [3] = Stability study of solid crystalline form (HPLC total impurities); format: physicochemical
# Experimental: Experimental Example 1: Stability study of solid crystalline form of the compound of formula (I)
# High performance liquid chromatography (HPLC) • The chromatographic conditions of the HPLC method are seen in table below: • Chromatography column: Zorbax SB C-18, 4.6 mm×150 mm, 5 μm (PDS-HPLC-007) • Mobile phase A: 0.1% TFA in water • Mobile phase B: 100% ACN
# Preparation of sample: the sample was dissolved with a mixed solvent of acetonitrile and water (acetonitrile: water=50:50 (v/v))
# Solid stability stakeout method
# The stability of the compound in the following conditions was examined, and samples were taken at different time points to detect the content. About 5 mg of the crystalline form of the compound of formula (I) prepared in Example 2 was accurately weighted in duplicate, transferred to a dry and clean glass bottle, spread into a thin layer as test samples, and placed in experimental conditions of influential factors ((60° C.), (relative humidity 92.5%), illumination (total illumination of 1.2×10^6 Luxhr/near UV energy of 200 whr/m^2), (40° C., relative humidity 75%), or (60° C., relative humidity 75%)). The samples were covered with aluminum foils having holes, and thus completely exposed to the conditions. Sampling analysis was performed at 5 days, 10 days, 1 month, 2 months and 3 months. The samples were completely exposed to illumination (visible light of 1200000 Lux, UV of 200 W) at room temperature.
# [4] = Hygroscopicity study by dynamic vapor sorption (DVS); format: physicochemical; details: 25° C., RH 0%-90%-0%
# Experimental: Experimental Example 2: Hygroscopicity study of crystalline form of the compound of formula (I)
# Instrument model: SMS DVS Advantage
# Test conditions: the sample (10-20 mg, the crystalline form prepared in Example 3) was placed in DVS sample tray for testing.
# The detailed DVS parameters are as follows:
# Balancing: dm/dt=0.01%/min (shortest: 10 min, longest: 180 min)
# Drying: drying at 0% RH for 120 min
# RH (%) test gradient: 10%
# Range of RH (%) test gradient: 0%-90%-0%.
Total impurities % ([3]; 40° C. + 75% RH - 1 month),Total impurities % ([3]; 40° C. + 75% RH - 2 months),Total impurities % ([3]; 40° C. + 75% RH - 3 months),Total impurities % ([3]; 40° C. + 75% RH - 10 days),Total impurities % ([3]; 60° C. + 75% RH - 1 month),Total impurities % ([3]; 60° C. + 75% RH - 10 days),Total impurities % ([3]; 60° C. - 5 days),Total impurities % ([3]; 60° C. - 10 days),Total impurities % ([3]; 92.5% RH - 5 days),Total impurities % ([3]; 92.5% RH - 10 days),Total impurities % ([3]; Day 0),"Total impurities % ([3]; Illumination (1.2×10^6 Lux hr, near UV 200 w hr/m^2))",Total impurities % ([3]; In the dark),"Stability in the conditions of high temperature, high humidity or illumination ([3]; high temperature, high humidity or illumination, no increase of impurities)",Hygroscopicity (DVS) [4],Structure (SMILES),Plasma clearance [1],PDE4 inhibitory activity (PDE4),Solubility [2]
–,–,–,–,–,–,–,–,–,–,–,–,–,–,–,COc1cc2c(cc1OC)-c1c/c(=N\c3c(C)cc(C)cc3C)n(CCNC(N)=O)c(=O)n1CC2 [RPL554],high,unsatisfactory,poor
0.10%,0.08%,0.09%,0.10%,0.10%,0.10%,0.10%,0.11%,0.11%,0.10%,0.11%,0.10%,0.11%,good stability,small hygroscopicity,CCOc1cc2c(cc1OC)-c1c/c(=N\c3c(C)cc(C)cc3C)n(CCNC(=O)c3c(O)nnn3C)c(=O)n1CC2,–,–,–
